Test: GSH human adduct formation in vitro
Format: in vitro ADME
Set-up: key: NF = in vitro no significant adduct formation relative to control
Details: relative to control

Compound: C[C@]1(c2cc(NC(=O)c3ncc(C(F)(F)F)cc3Cl)ccc2F)N=C(N)OCC1(F)F [Example 5, 3-Chloro-5-trifluoromethyl-pyridine-2-carboxylic acid [3-((R)-2-amino-5,5-difluoro-4-methyl-5,6-dihydro-4H-[1,3]oxazin-4-yl)-4-fluoro-phenyl]-amide]
- GSH human, adduct formation: NF

Reference: patent US8389513B2, “2-amino-5,5-difluoro-5,6-dihydro-4H-[1,3]oxazin-4-yl)-phenyl]-amides” (Hoffmann-La Roche Inc., priority 2009, dated 2013)
